In US12411128B2, “Methods and apparatuses for prediction of mechanism of activity of compounds” (The Regents of the University of California, priority 2017, dated 2025):

Columns and labels:
[1] = test system: human ventricular cardiac tissue strips (hvCTS); assay: binary SVM cardioactivity index from hvCTS twitch force readouts; assay type: cell-based; settings: for cardioactivity versus vehicle-treated hvCTS by binary SVM accuracy: over tested concentration range, Student's t-test with Bonferroni correction
Protocol: The binary SVM is capable of summarizing all parameters and providing a simple metric that expresses a compound's degree of cardioactivity at a given dosage (Lee et al., 2015). […] As a result, a SVM accuracy metric is calculated to reflect the machine's ability to identify a cardioactive effect (e.g. 75% accuracy means that out of 100 data points, the machine could correctly classify 75 of them). To account for variations within the data set, multiple runs are performed to calculate the mean SVM accuracy. […] Prominent cardioactive effects allow the space between the data from treated and control conditions to become more distinguishable, leading to a higher SVM accuracy with 100% being the maximum.
Although the hvCTSs (FIG. 3, A) were examined under temperature-controlled conditions, there was an observable drift in contractile behavior of the vehicle-treated hvCTSs. For example, the relative measured maximum developed force increased for all pacing frequencies by a cumulative average of 16.96±0.83% upon the ninth serial addition (FIG. 3, B). To account and normalize for baseline drift, each drug condition was compared to its respective vehicle condition via binary SVM (e.g., measurements of the 7th serial drug addition were compared to those of vehicle-treated hvCTSs at the 7th serial addition). To establish a benchmark of non-cardioactivity, a subset of the vehicle-treated hvCTSs were randomly selected to model a non-cardioactive compound. Binary SVM was then performed between the subset and a corresponding control group of equal size (n).
Human ventricular cardiomyocytes were differentiated from a hES2 stem cell line with a Wnt inhibitor-based protocol as previously described (Weng et al., 2014). Human ventricular cardiac tissue strips (hvCTS) were then formed by mixing cardiomyocytes (100 k cells per strip) at 14-16 days post differentiation with a solution of bovine collagen I (2 mg/mL), Matrigel (0.9 mg/mL), and human foreskin fibroblasts (100 k cells per strip) as previously described (Turnbull et al., 2014). The cell-matrix solution (100 uL per tissue strip) was injected into a custom PDMS force-sensing bioreactor device and placed in an incubator (37° C. and 5% CO2). Formed hvCTSs were fed DMEM with 10% new born calf serum, 1% penicillin-streptomycin and 0.1% amphotericin B. The PDMS device contains two flexible vertical end-posts to which the tissue anchors, causing the posts to deflect as the tissue beats. Contractile force measurements were captured with a high speed (100 fps) CCD camera while custom LabVIEW software tracked the centroid movement of the flexible post tips. Force was converted from the deflection of the PDMS posts by an elastic beam bending equation (Serrao et al., 2012). […]

[2] = test system: human ventricular cardiac tissue strips (hvCTS); assay: class relationship metrics: binary SVM with Gaussian fit between 'unknown' and library compound; assay type: cell-based; settings: for Estimated Similar Concentration of digoxin: ouabain at 1.0 × 10^−5 M
Protocol: Once the drug classes were predicted, the concentrations of library compounds that induced the most similar cardioactive effects as the ‘unknown’ compounds were computed (FIG. 7; protocol in Example 5).
The concentration of a library compound that induced the most similar cardioactive effects as the compound of interest was determined. This class relationship metric was computed by first selecting the compound of interest at a desired concentration and performing a series of binary SVM among the tested range of a library compound. For each concentration of the library compound, the closer the SVM accuracy was to 50%, the more defined boundaries of the compounds overlapped and the more similar the cardioactive effects were. This relationship between SVM accuracy and tested concentration range was presumed to behave in a Gaussian manner with the centroid representing the concentration that would elicit the most similar effects. The Gaussian fit was set with 50% as the lower limit and the highest achieved SVM accuracy as the upper limit. If the original SVM accuracies reached the 50% mark and remained around this value for subsequent concentrations, only the first concentration to reach the 50% was included in the fit to accurately model one side of the Gaussian curve.

[3] = test system: human ventricular cardiac tissue strips (hvCTS); assay: individual contractile force parameters of electrically paced hvCTS; settings: for change of duration of relaxation phase / change of max force: increasing concentration up to 10^−4 M (100 μM)
Description: Each of the compounds, with the exception of aspirin, belonged to one of five classes with each class comprising a minimum of two compounds. Aspirin functioned as a reference for a cardiac-neutral compound. […] The parameters include: • 1. Desired pacing frequency. • 2. Captured pacing frequency. • 3. Max force generated (amplitude). • 4. […] Max change of force over time ([…]F/[…]t) of contraction phase. • 9. Max change of force over time ([…]F/[…]t) of relaxation phase. • 10. Duration of rise from 50% cutoff to max force. • 11. Duration of decline from max force to 50% cutoff. • 12. Area under the curve of rise from 50% cutoff to max force. • 13. Area under the curve of decline from max force to 50% cutoff. • 14. […] Area under the curve of rise from 50% cutoff to max force. • 17. Area under the curve of decline from max force to 50% cutoff.
The cell-matrix solution (100 uL per tissue strip) was injected into a custom PDMS force-sensing bioreactor device and placed in an incubator (37° C. and 5% CO2). Formed hvCTSs were fed DMEM with 10% new born calf serum, 1% penicillin-streptomycin and 0.1% amphotericin B. The PDMS device contains two flexible vertical end-posts to which the tissue anchors, causing the posts to deflect as the tissue beats. Contractile force measurements were captured with a high speed (100 fps) CCD camera while custom LabVIEW software tracked the centroid movement of the flexible post tips. […] A custom MATLAB script was used to calculate 17 parameters that described the overall shape of the force traces for each contractile event (FIG. 1). Each contraction was regarded as an individual data point for the machine learning analysis.
After 7-8 days post tissue formation, hvCTS were exposed to drugs for pharmacodynamic analysis. Flecainide, lisinopril, norepinephrine and ramipril were provided by Pfizer, while all other compounds were purchased form Sigma-Aldrich. Compounds were initially resuspended in DMSO and subsequently diluted in water for final concentrations composed of less than 0.1% (vol/vol) DMSO. The PDMS device containing the hvCTS was placed onto a heated stage (37° C.) under a dissecting microscope. Before either vehicle or drug addition, the media was replaced with DMEM containing high glucose (4.5 g/L) and HEPES without phenol red. Drug doses were added to a tissue in consecutively increasing manner up to 10 concentrations with 3 minutes in between measurements. Vehicle doses containing only water were applied similarly. A pulse stimulator (AMPI Master-9) connected to platinum wires electrically paced the hvCTS with a monophasic electric field of 5 V/cm with a 10 ms pulse duration.
SVM accuracies of strips exposed to a drug condition were compared to those of the non-cardioactive benchmark by using Student's t-test (desired a value of 0.05) with a Bonferroni correction (m, number of tests or hypotheses, was dependent on the number of drug additions in a screen). […] The Bonferroni correction was also applied when examining changes in specific parameters.

With `CC(=O)Oc1ccccc1C(=O)O` [Aspirin] the “SVM accuracy, average among all serial additions” value ([1]; binary SVM vs vehicle-treated hvCTS, 10 nM to 100 μM, n=6) was 52.85±1.77% and the “cardioactivity versus vehicle-treated hvCTS by binary SVM accuracy” value [1] was “non-cardioactivity”.

`COc1cc(N)c(Cl)cc1C(=O)NC1CCN(CCCOc2ccc(F)cc2)CC1OC` (stereo not shown) [Cisapride] was tested, and the “Estimated Similar Concentration of flecainide” value ([2]; cisapride at 1.0 × 10^−4 M, centroid of Gaussian fit) was “Flecainide (1.03 × 10^−5) M”, the “change of duration of relaxation phase” value ([3]; paced at 0.5 Hz) was “increased” and the “change of max force” value ([3]; paced at 0.5 Hz) was “decreased”.

In the case of `C[C@H]1O[C@@H](O[C@H]2[C@@H](O)C[C@H](O[C@H]3[C@@H](O)C[C@H](O[C@H]4CC[C@@]5(C)[C@H](CC[C@@H]6[C@@H]5C[C@@H](O)[C@]5(C)[C@@H](C7=CC(=O)OC7)CC[C@]65O)C4)O[C@@H]3C)O[C@@H]2C)C[C@H](O)[C@@H]1O` [Digoxin], the “change of duration of relaxation phase” value ([3]; paced at 0.5 Hz) is reported as “increase in duration of relaxation phase” and the “change of max force” value ([3]; paced at 0.5 Hz) is reported as “decrease in max force”.

With `CC(C)NCC(O)c1ccc(O)c(O)c1` (stereo not shown) [Isoproterenol] the “decrease of duration of the relaxation phase (time from maximum developed force to 95% cutoff)” value ([3]; 10 μM) was 22.19±19.35%, the “increase in maximum developed force” value ([3]; 10 μM, paced at 0.5 Hz) was 10.42±16.23% and the “duration of the relaxation phase versus the vehicle study (lusitropic effect)” value ([3]; paced at 0.5 Hz, 3.0×10^−7 to 10^−5 M, n=10) was “decreased significantly”. The inotropic effect ([3]; paced hvCTS (nifedipine 1 Hz; isoproterenol 10 μM, 0.5 Hz)) was “negligible inotropic effects”.

For `NCCCC[C@H](N[C@@H](CCc1ccccc1)C(=O)O)C(=O)N1CCC[C@H]1C(=O)O` [Lisinopril], the “cardioactivity versus vehicle-treated hvCTS by binary SVM accuracy” value [1] was “did not have detectable cardioactive effects”.

With `COCC(=O)O[C@]1(CCN(C)CCCc2nc3ccccc3[nH]2)CCc2cc(F)ccc2[C@@H]1C(C)C` [Mibefradil] the “Estimated Similar Concentration of nifedipine” value ([2]; mibefradil at 3.0 × 10^−6 M, centroid of Gaussian fit) was “Nifedipine (1.28 × 10^−7) M”.

`NC[C@H](O)c1ccc(O)c(O)c1` [Norepinephrine] was tested, and the “Estimated Similar Concentration of isoproterenol” value ([2]; norepinephrine at 1.0 × 10^−5 M, centroid of Gaussian fit) was “(1.44 × 10^−6) M”.

For `C[C@@H]1O[C@@H](O[C@H]2C[C@@H](O)[C@]3(CO)[C@H]4[C@H](O)C[C@]5(C)[C@@H](C6=CC(=O)OC6)CC[C@]5(O)[C@@H]4CC[C@]3(O)C2)[C@H](O)[C@H](O)[C@H]1O` [Ouabain], the “fold lower concentration than digoxin to achieve the same level of cardioactivity” value ([2]; ouabain 1.0×10^−5 M vs digoxin 5.35×10^−5 M) was “approximately 5 fold”, the “Estimated Similar Concentration of digoxin” value ([2]; centroid of Gaussian fit) was “Digoxin (5.35 × 10^−5) M” and the “Estimated Similar Concentration of digoxin” value ([2]; centroid of Gaussian fit, listed as ouabain) was 53.5 µM. The “treated strips that stopped beating at all pacing frequencies” value ([3]; 100 μM) was 4 of the 10.

In the case of `CCOC(=O)[C@H](CCc1ccccc1)N[C@@H](C)C(=O)N1[C@H](C(=O)O)C[C@@H]2CCC[C@@H]21` [Ramipril], the “cardioactivity versus vehicle-treated hvCTS by binary SVM accuracy” value [1] is reported as “did not have detectable cardioactive effects”.
